{"source": "patent US12458610B2", "about": "“Pharmaceutical composition for treating or preventing diabetic cataract” (KOREA UNIVERSITY RESEARCH AND BUSINESS FOUNDATION, priority 2019, dated 2025)", "type_in_all_cases": "in vivo, rat", "key": {"[1]": {"assay": "Body weight change in diabetes model rats", "conditions": "OLETF rats; for body weight over time: raising period", "text": "(§1) Otsuka Long-Evans Tokushima Fatty (OLETF) rats were used as a diabetes animal model of rats. The OLETF rats are widely used as a type 2 diabetes animal model because fat accumulation and hyperglycemia are induced in the body of the experimental animals and the pathological condition is similar to that of type 2 diabetes in human. Long-Evans Tokushima Otsuka (LETO) rats were used as a normal control group. The OLETF rats were divided into three groups depending on midodrine intake: OLETF, OLETF-M0.3 and OLETF-M1.0. The OLETF group was raised without intake of midodrine, the OLETF-M0.3 group was made to ingest 0.3 mg of midodrine every day per body weight (midodrine 0.3 mg/kg/day), and the OLETF-M1.0 group was made to ingest 1.0 mg of midodrine every day per body weight (midodrine 1.0 mg/kg/day). Midodrine was dissolved in drinking water so that the rats could ingest the corresponding daily dosage.\n(§2) The experimental animals were divided into four groups: LETO, OLETF, OLETF-M0.3 and OLETF-M1.0, and all the experimental animals were raised for 12 weeks. During the 12 weeks, the OLETF-M0.3 group and the OLETF-M1.0 group were made to ingest midodrine every day."}, "[2]": {"system": "aldose reductase", "assay": "Aldose reductase level in lens by ELISA", "conditions": "OLETF rats, OLETF 38.4±3.1, LETO 37.2±2.8", "text": "as §1, §2\n(§3) The levels of aldose reductase, hexokinase and ATP in the lens sample were measured with a spectrophotometer (Spectramax Plus 384; Molecular Devices, Sunnyvale, CA, USA) by ELISA assay."}, "[3]": {"system": "Otsuka Long-Evans Tokushima Fatty (OLETF) rats", "assay": "Lens transparency: clarity of graph paper pattern seen through the lens (ImageJ)", "conditions": "midodrine 0.3 mg/kg/day for 12 weeks (OLETF-M0.3), untreated OLETF significantly decreased", "text": "as §1, §2"}, "[4]": {"system": "hexokinase", "assay": "Hexokinase level in lens by ELISA", "conditions": "OLETF rats, untreated OLETF significantly lower than LETO", "text": "as §1, §2, §3"}, "[5]": {"system": "TNFα", "assay": "TNFα level in blood (plasma)", "conditions": "OLETF rats, midodrine 0.3 mg/kg/day (OLETF-M0.3); OLETF 10.667±2.732, LETO 7.23±0.722", "text": "as §1, §2"}, "[6]": {"system": "ATP", "assay": "ATP level in lens by ELISA", "conditions": "OLETF rats, OLETF 2.307±0.225, LETO 2.622±0.146", "text": "as §1, §2, §3"}, "[7]": {"system": "AMPK (AMP-activated protein kinase)", "assay": "AMPK level in lens", "conditions": "OLETF rats, midodrine 0.3 mg/kg/day (OLETF-M0.3); OLETF 0.0509±0.0293 U/mL"}, "[8]": {"system": "Otsuka Long-Evans Tokushima Fatty (OLETF) rats", "assay": "Onset of cataract in lens by retroillumination imaging (LOCS III C1/P1 or higher)", "conditions": "untreated OLETF 8 out of 12 eyes", "text": "as §1, §2"}, "[9]": {"assay": "Fasting blood sugar level in diabetes model rats, weekly by blood glucose meter", "conditions": "midodrine 1.0 mg/kg/day in drinking water (OLETF-M1.0), from week 9", "text": "as §1, §2"}, "[10]": {"conditions": "midodrine 0.3 mg/kg/day (OLETF-M0.3)"}, "[11]": {"conditions": "midodrine 1.0 mg/kg/day (OLETF-M1.0)"}}, "data": [{"molecule": "COc1ccc(OC)c(C(O)CNC(=O)CN)c1", "note": "(racemic) [midodrine, (RS)—N-[2-(2,5-dimethoxyphenyl)-2-hydroxyethyl]glycinamide]", "values": [{"measurement": "body weight compared with the LETO group", "setting": "[1]; midodrine 0.3 mg/kg/day (OLETF-M0.3), from week 9", "value": "no significant difference"}, {"measurement": "body weight over time", "setting": "[1]; midodrine 0.3 mg/kg/day in drinking water (OLETF-M0.3)", "value": "decreased slightly with time"}, {"measurement": "body weight over time", "setting": "[1]; midodrine 1.0 mg/kg/day in drinking water (OLETF-M1.0)", "value": "decreased slightly with time"}, {"measurement": "level of aldose reductase in lens", "setting": "[2]; [10]", "value": "33.6±2.6", "unit": "U/L"}, {"measurement": "level of aldose reductase in lens", "setting": "[2]; [11]", "value": "34.1±2.8", "unit": "U/L"}, {"measurement": "lens transparency compared with the LETO group", "setting": "[3]", "value": "no significant difference"}, {"measurement": "hexokinase level in lens as compared to the LETO group", "setting": "[4]; [10]", "value": "no significant difference"}, {"measurement": "hexokinase level in lens as compared to the LETO group", "setting": "[4]; [11]", "value": "no significant difference"}, {"measurement": "level of the inflammatory cytokine TNFα in blood (plasma)", "setting": "[5]", "value": "5.383 ± 0.984", "unit": "pg/mL"}, {"measurement": "level of ATP in lens", "setting": "[6]; [10]", "value": "3.065 ± 0.202", "unit": "ng/mL"}, {"measurement": "level of ATP in lens", "setting": "[6]; [11]", "value": "3.025 ± 0.299", "unit": "ng/mL"}, {"measurement": "AMPK level in lens as compared to the OLETF group", "setting": "[7]", "value": "significantly increased"}, {"measurement": "eyes with cataract observed", "setting": "[8]; midodrine 0.3 mg/kg/day for 12 weeks (OLETF-M0.3)", "value": "1 out of 10"}, {"measurement": "eyes with cataract observed", "setting": "[8]; midodrine 1.0 mg/kg/day for 12 weeks (OLETF-M1.0)", "value": "2 out of 8"}, {"measurement": "fasting blood sugar level as compared to the OLETF group", "setting": "[9]", "value": "decreased slightly"}]}]}
